Results from patent US20240360134A1, “PYRAZOLOPYRIMIDINES AND THEIR USES AS PDGFR INHIBITORS” (priority 2021, published 2024).
Read-outs that look alike come from different tables or passages of the source.

Assays:
[1] = in vivo; cited from earlier work
[2] = target: Tb-labeled inactive PDGFRβ (Homo sapiens (Human), UniProt P09619); test: biochemical; format: binding
[3] = target: VEGFR2, unphosphorylated (Homo sapiens (Human), UniProt P35968); test: VEGFR ADP GLO assay; format: biochemical; conditions: 5 nM VEGFR2, 1.2 mM ATP, 1 mg/mL Srctide, 180 min
In short: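 Luminescent ADP detection after a 180-min room-temperature reaction of srctide plus ATP (2 mg/mL and 2.4 mM in 2× mix) in pH 7.5 HEPES buffer with DTT, Pluronic and ovalbumin. Compounds, 11 points from 10 µM, first pre-incubated 30 min with enzyme (2× mix 10 nM). IC50s fitted after scaling between DMSO and 1 µM TAK-593 controls.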

[4] = target: His6-TEV-PDGFRβ (557-1016) (Homo sapiens (Human), UniProt P09619); test: PDGFRβ HTRF Assay; format: biochemical
[5] = target: PDGFRβ (Rattus norvegicus (Rat), UniProt Q05030); test: PDGFRβ Cellular Assay (PDGFRb P-Y751 HTRF, PDGF-BB stimulated A10 cells); format: cell-based
In short: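 Rat A10 cells plated overnight were treated with compound for 3 h, stimulated with rat PDGF-BB (working stock 100 ng/mL in 10% FBS medium) for 10 min, then lysed.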

[6] = 800 μM ATP, 0.5 μM TK-substrate biotin peptide, 30 min pre-incubation, 3 hours reaction, read-out: PDGFR HTRF IC50
[7] = A10 cells, 3 hours compound, 15 ng/mL PDGFbb for 10 minutes, read-out: PDGFR Cellular IC50

Sequence of Tb-labeled inactive PDGFRβ (P09619 whole entry, looked up): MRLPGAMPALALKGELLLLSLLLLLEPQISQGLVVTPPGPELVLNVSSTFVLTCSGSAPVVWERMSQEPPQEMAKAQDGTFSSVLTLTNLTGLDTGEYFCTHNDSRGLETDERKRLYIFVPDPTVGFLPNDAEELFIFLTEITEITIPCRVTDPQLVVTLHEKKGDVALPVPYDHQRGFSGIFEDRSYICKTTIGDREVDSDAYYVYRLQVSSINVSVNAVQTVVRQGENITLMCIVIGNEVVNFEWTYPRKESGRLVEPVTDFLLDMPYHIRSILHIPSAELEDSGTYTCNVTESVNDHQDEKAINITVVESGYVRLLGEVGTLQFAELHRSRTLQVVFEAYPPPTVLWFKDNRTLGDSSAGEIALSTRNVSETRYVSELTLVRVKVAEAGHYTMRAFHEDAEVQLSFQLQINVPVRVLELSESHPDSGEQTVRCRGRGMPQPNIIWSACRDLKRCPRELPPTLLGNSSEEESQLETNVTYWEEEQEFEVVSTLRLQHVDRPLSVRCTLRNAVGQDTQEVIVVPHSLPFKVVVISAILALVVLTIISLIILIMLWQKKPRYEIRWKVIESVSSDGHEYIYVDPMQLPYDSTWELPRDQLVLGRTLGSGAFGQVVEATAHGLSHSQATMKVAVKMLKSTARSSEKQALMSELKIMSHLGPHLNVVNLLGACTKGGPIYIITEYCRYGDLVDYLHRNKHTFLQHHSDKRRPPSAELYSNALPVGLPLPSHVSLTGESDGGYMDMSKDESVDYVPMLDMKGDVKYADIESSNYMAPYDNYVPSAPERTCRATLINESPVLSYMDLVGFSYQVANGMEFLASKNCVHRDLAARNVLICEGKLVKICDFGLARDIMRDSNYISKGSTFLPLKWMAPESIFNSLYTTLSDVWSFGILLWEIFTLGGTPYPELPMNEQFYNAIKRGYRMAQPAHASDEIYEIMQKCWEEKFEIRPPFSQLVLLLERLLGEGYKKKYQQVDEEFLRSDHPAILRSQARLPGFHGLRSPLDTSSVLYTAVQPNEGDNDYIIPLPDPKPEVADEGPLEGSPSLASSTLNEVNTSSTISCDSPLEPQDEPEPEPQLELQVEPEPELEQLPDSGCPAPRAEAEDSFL
Sequence of His6-TEV-PDGFRβ (557-1016) (P09619 whole entry, looked up): as above
Sequence of PDGFRβ (Q05030 whole entry, looked up): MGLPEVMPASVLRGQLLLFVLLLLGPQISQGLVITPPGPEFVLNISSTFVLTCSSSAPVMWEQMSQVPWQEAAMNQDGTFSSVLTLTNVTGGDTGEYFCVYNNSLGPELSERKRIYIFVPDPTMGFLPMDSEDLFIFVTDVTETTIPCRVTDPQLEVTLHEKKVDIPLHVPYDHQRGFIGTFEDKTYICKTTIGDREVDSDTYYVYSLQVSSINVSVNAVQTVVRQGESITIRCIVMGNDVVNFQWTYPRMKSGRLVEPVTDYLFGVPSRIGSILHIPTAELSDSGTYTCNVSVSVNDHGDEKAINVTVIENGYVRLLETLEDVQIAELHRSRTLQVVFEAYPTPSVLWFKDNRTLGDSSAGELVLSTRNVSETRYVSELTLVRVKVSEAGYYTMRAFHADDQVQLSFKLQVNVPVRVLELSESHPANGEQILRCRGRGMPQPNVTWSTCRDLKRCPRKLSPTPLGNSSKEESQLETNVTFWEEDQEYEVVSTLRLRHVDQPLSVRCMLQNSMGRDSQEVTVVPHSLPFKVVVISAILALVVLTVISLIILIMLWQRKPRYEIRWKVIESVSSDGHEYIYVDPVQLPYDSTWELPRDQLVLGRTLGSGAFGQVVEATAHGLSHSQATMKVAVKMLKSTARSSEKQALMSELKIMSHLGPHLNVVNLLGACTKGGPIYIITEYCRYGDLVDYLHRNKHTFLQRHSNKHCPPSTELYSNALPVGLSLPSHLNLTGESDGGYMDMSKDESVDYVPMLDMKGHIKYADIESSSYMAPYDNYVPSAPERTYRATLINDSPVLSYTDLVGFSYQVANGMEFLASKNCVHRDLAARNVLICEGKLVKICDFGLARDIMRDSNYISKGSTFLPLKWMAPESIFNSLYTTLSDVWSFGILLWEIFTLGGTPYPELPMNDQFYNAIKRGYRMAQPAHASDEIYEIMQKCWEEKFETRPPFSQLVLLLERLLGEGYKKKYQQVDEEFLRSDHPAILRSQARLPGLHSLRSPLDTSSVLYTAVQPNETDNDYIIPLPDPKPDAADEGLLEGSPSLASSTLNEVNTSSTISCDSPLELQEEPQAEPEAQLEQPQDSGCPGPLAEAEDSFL
Sequence of VEGFR2, unphosphorylated (P35968 whole entry, looked up): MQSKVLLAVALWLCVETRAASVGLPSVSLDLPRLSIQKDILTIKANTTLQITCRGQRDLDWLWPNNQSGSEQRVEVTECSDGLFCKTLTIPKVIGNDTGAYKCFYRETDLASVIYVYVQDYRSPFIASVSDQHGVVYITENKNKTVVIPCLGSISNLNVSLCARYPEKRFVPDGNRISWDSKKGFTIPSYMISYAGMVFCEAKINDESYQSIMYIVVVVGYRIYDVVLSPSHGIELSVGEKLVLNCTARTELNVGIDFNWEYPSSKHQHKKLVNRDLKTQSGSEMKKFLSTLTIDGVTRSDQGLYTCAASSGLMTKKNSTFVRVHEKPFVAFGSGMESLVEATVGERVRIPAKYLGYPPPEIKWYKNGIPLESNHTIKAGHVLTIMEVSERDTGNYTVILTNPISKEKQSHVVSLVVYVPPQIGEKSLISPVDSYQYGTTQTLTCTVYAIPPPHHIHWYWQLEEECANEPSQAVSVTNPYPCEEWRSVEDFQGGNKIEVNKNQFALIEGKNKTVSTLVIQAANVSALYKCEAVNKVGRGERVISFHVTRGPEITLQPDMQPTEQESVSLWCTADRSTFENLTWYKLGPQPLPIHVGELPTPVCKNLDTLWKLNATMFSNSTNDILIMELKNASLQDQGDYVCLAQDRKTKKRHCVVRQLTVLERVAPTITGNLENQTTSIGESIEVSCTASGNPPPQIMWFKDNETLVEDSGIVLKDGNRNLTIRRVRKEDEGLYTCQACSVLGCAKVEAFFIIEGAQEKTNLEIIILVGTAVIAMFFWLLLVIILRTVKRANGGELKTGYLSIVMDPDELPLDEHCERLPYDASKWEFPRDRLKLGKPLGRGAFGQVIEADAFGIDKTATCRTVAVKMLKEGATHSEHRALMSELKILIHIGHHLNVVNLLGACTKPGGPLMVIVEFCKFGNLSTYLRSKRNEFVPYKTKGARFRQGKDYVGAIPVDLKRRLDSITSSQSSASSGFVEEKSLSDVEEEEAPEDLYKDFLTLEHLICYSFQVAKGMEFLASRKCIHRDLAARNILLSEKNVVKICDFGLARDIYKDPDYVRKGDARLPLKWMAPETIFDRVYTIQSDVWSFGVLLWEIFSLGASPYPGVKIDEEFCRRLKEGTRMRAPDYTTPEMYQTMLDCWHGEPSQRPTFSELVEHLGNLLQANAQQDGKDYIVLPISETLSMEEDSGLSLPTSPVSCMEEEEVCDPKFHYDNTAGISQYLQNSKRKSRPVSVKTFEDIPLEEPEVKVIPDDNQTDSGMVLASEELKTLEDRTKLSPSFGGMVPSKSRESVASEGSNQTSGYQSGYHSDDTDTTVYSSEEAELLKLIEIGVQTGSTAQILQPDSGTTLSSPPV

| SMILES | cardiotoxicity and development of pulmonary hypertension [1] | IC50 ([2]; read-out: PDGFR Lantha IC50) | IC50 [3] | IC50 [4, 6] | IC50 [5, 7] | IC50 [2] | IC50 [4] | IC50 [5] |
| --- | --- | --- | --- | --- | --- | --- | --- | --- |
| Cc1nc(Nc2ncc(C(=O)Nc3c(C)cccc3Cl)s2)cc(N2CCN(CCO)CC2)n1 [dasatinib] | linked to cardiotoxicity and the development of pulmonary hypertension |  |  |  |  |  |  |  |
| Cc1ncc(C(=O)NCCN2CCCC2(C)C)cc1Nc1nn(C)c2nc(Nc3cnn4c3OCCC4)ncc12 [Example 163, 5-((6-((6,7-dihydro-5H-pyrazolo[5,1-b][1,3]oxazin-3-yl)amino)-1-methyl-1H-pyrazolo[3,4-d]pyrimidin-3-yl)amino)-N-(2-(2,2-dimethylpyrrolidin-1-yl)ethyl)-6-methylnicotinamide] |  | 0.805 µM | > 7.5 µM | 0.0864 µM | > 2 µM |  |  |  |
| Cc1ncc(C(=O)NCCN2CCCC2(C)C)cc1Nc1nn(C)c2cc(Nc3cnn(C)c3)ncc12 [Example 69, N-(2-(2,2-dimethylpyrrolidin-1-yl)ethyl)-6-methyl-5-((1-methyl-6-((1-methyl-1H-pyrazol-4-yl)amino)-1H-pyrazolo[4,3-c]pyridin-3-yl)amino)nicotinamide] |  | 0.0484 µM | > 7.5 µM | 0.00127 µM | 0.0369 µM |  |  |  |
| Cc1ncc(C(=O)NCCN2CCCCC23CC3)cc1Nc1nn(C)c2nc(Nc3cnn(C)c3)ncc12 [Example 150, N-(2-(4-azaspiro[2.5]octan-4-yl)ethyl)-6-methyl-5-((1-methyl-6-((1-methyl-1H-pyrazol-4-yl)amino)-1H-pyrazolo[3,4-d]pyrimidin-3-yl)amino)nicotinamide] |  | 0.0012 µM | 1.55 µM | 0.0003 µM | 0.0043 µM |  |  |  |
| Cc1ncc(C(=O)NCCN2CCCC23CCC3)cc1Nc1nn(C)c2nc(Nc3cnn(C)c3)ncc12 [Example 151, N-(2-(5-azaspiro[3.4]octan-5-yl)ethyl)-6-methyl-5-((1-methyl-6-((1-methyl-1H-pyrazol-4-yl)amino)-1H-pyrazolo[3,4-d]pyrimidin-3-yl)amino)nicotinamide] |  | 0.0017 µM | 2.96 µM | 0.00029 µM | 0.0048 µM |  |  |  |
| COCCn1cc(Nc2ncc3c(Nc4cc(NC(=O)CN5CCC[C@@H]5C)cnc4C)nn(C)c3n2)cn1 [Example 128, (S)—N-(5-((6-((1-(2-methoxyethyl)-1H-pyrazol-4-yl)amino)-1-methyl-1H-pyrazolo[3,4-d]pyrimidin-3-yl)amino)-6-methylpyridin-3-yl)-2-(2-methylpyrrolidin-1-yl)acetamide] |  | 0.0036 µM | > 7.5 µM | 0.00047 µM | 0.0045 µM |  |  |  |
| CC(=O)Nc1cccc(Nc2ncc3c(Nc4cc(C(=O)NCCN5CCCC5(C)C)cnc4C)nn(C)c3n2)c1 [Example 98, 5-((6-((3-acetamidophenyl)amino)-1-methyl-1H-pyrazolo[3,4-d]pyrimidin-3-yl)amino)-N-(2-(2,2-dimethylpyrrolidin-1-yl)ethyl)-6-methylnicotinamide] |  | 0.012 µM | > 7.5 µM | 0.00198 µM | 0.723 µM |  |  |  |
| COCCn1cc(Nc2ncc3c(Nc4cc(C(=O)NCCN5CCCC5(C)C)cnc4C)nn(C)c3n2)cn1 [Example 148, N-(2-(2,2-dimethylpyrrolidin-1-yl)ethyl)-5-((6-((1-(2-methoxyethyl)-1H-pyrazol-4-yl)amino)-1-methyl-1H-pyrazolo[3,4-d]pyrimidin-3-yl)amino)-6-methylnicotinamide] |  | 0.0043 µM | > 7.5 µM | 0.00074 µM | 0.0649 µM |  |  |  |
| Cc1ncc(C(=O)NCCN2CCCC2(C)C)cc1Nc1nn(C)c2nc(Nc3cccc(CC(=O)O)c3)ncc12 [Example 44, 2-(3-((3-((5-((2-(2,2-dimethylpyrrolidin-1-yl)ethyl)carbamoyl)-2-methylpyridin-3-yl)amino)-1-methyl-1H-pyrazolo[3,4-d]pyrimidin-6-yl)amino)phenyl)-acetic acid] |  | 0.0097 µM | 2.19 µM | 0.00154 µM | 2.66 µM |  |  |  |
| Cc1cc(C(=O)NCCN2CCCC2(C)C)sc1Nc1nn(C)c2nc(Nc3cncnc3)ncc12 [Example 48, N-(2-(2,2-dimethylpyrrolidin-1-yl)ethyl)-4-methyl-5-((1-methyl-6-(pyrimidin-5-ylamino)-1H-pyrazolo[3,4-d]pyrimidin-3-yl)amino)thiophene-2-carboxamide] |  | 0.0528 µM | > 7.5 µM | 0.00107 µM | 0.11 µM |  |  |  |
| Cc1ncc(C(=O)NCCC2CCCCC2)cc1Nc1nn(C)c2nc(Nc3ccc(CC(=O)O)nc3)ncc12 [Example 106, 2-(5-((3-((5-((2-cyclohexylethyl)carbamoyl)-2-methylpyridin-3-yl)amino)-1-methyl-1H-pyrazolo[3,4-d]pyrimidin-6-yl)amino)pyridin-2-yl)acetic acid] |  |  | 0.915 µM |  |  | 0.0036 µM | 0.00076 µM | 0.0126 µM |
| Cc1ncc(C(=O)NCCN2CCCC2(C)C)cc1Nc1nn(C)c2nc(Nc3ccc(=O)n(C)n3)ncc12 [Example 31, N-(2-(2,2-dimethylpyrrolidin-1-yl)ethyl)-6-methyl-5-((1-methyl-6-((1-methyl-6-oxo-1,6-dihydropyridazin-3-yl)amino)-1H-pyrazolo[3,4-d]pyrimidin-3-yl)amino)nicotinamide] |  | 0.0603 µM | > 7.5 µM | 0.0025 µM | 0.39 µM |  |  |  |
| Cc1ncc(C(=O)NCCN2CCCC23CC3)cc1Nc1nn(C)c2nc(Nc3cncnc3)ncc12 [Example 57, N-(2-(4-azaspiro[2.4]heptan-4-yl)ethyl)-6-methyl-5-((1-methyl-6-(pyrimidin-5-ylamino)-1H-pyrazolo[3,4-d]pyrimidin-3-yl)amino)nicotinamide] |  | 0.0056 µM | > 7.5 µM | 0.00097 µM | 0.0156 µM |  |  |  |
| Cc1ncc(C(=O)NCCN2CCCC2(C)C)cc1Nc1nn(C)c2nc(Nc3cncnc3)ncc12 [Example 27, N-(2-(2,2-dimethylpyrrolidin-1-yl)ethyl)-6-methyl-5-((1-methyl-6-(pyrimidin-5-ylamino)-1H-pyrazolo[3,4-d]pyrimidin-3-yl)amino)nicotinamide] |  | 0.004 µM | > 10 µM | 0.0007 µM | 0.0312 µM |  |  |  |
| COc1ncccc1Nc1ncc2c(Nc3cc(NC(=O)CN4CCC[C@@H]4C)cnc3C)nn(C)c2n1 [Example 146, (S)—N-(5-((6-((2-methoxypyridin-3-yl)amino)-1-methyl-1H-pyrazolo[3,4-d]pyrimidin-3-yl)amino)-6-methylpyridin-3-yl)-2-(2-methylpyrrolidin-1-yl)acetamide] |  | 0.0197 µM | > 7.5 µM | 0.00233 µM | 0.0141 µM |  |  |  |
| Cc1ncc(NC(=O)CN2CC[C@H](C)C2)cc1Nc1nn(C)c2nc(Nc3cnn(C)c3)ncc12 [Example 140, (S)—N-(6-methyl-5-((1-methyl-6-((1-methyl-1H-pyrazol-4-yl)amino)-1H-pyrazolo[3,4-d]pyrimidin-3-yl)amino)pyridin-3-yl)-2-(3-methylpyrrolidin-1-yl)acetamide] |  | 0.0016 µM | > 7.5 µM | 0.00023 µM | 0.0022 µM |  |  |  |
